Data set [1] concerns the target T1, KasA (Mycobacterium tuberculosis, UniProt P9WQD9). The class given is cell-based.
Data set [2] concerns the target T1, KasA. The format is biochemical.
The data set “crystal structure” concerns the molecule itself. The experiment in a line: crystal structure.

T1 sequence (P9WQD9 whole entry): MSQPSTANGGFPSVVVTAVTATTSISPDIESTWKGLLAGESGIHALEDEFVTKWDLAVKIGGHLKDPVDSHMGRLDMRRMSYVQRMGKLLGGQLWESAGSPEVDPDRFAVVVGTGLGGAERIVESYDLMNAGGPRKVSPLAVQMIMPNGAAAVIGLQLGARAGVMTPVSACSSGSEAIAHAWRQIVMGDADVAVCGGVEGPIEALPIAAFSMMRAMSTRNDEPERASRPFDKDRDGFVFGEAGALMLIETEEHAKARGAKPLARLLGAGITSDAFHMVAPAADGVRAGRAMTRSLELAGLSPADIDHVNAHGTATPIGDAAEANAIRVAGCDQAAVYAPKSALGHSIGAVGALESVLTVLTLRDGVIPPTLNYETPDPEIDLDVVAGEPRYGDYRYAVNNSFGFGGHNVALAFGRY

Take `CCCCS(=O)(=O)Nc1ccc2cnn(CCCN)c2c1` [compound 1, tagged analogue (1)]: the “bead-immobilized probe captures KasA from M. bovis BCG extract, competed by free” value at KasA [1] is “only three proteins were efficiently competed off the beads by excess GSK3011724A: KasA”.
Molecule `CCCCS(=O)(=O)N(C)c1ccc2cnn(C)c2c1` [compound 2, inactive analogue 2] had a Kd on KasA [2] of 4.5 µM.

B1: β-ketoacyl synthase KasA (Mycobacterium tuberculosis) (enzyme)
chain: SQPSTANGGFPSVVVTAVTATTSISPDIESTWKGLLAGESGIHALEDEFVTKWDLAVKIGGHLKDPVDSHMGRLDMRRMSYVQRMGKLLGGQLWESAGSPEVDPDRFAVVVGTGLGGAERIVESYDLMNAGGPRKVSPLAVQMIMPNGAAAVIGLQLGARAGVMTPVSACSSGSEAIAHAWRQIVMGDADVAVCGGVEGPIEALPIAAFSMMRAMSTRNDEPERASRPFDKDRDGFVFGEAGALMLIETEEHAKARGAKPLARLLGAGITSDAFHMVAPAADGVRAGRAMTRSLELAGLSPADIDHVNAHGTATPIGDAAEANAIRVAGCDQAAVYAPKSALGHSIGAVGALESVLTVLTLRDGVIPPTLNYETPDPEIDLDVVAGEPRYGDYRYAVNNSFGFGGHNVALAFGRY
notes: also called Rv2245
On to B1, for which, in “crystal structure”, the “stoichiometry N” value came to 2.

The values above are taken from publication PMC5025758 (Nature Communications, 2016).
